Source: PMC9401487 (Clinical Cancer Research, 2021)
Entries after “also recorded” stand apart in the source; their conditions may differ.

Tested on: patients with advanced solid tumors
Assay: Phase I safety and tolerability
Type: in vivo, human
[1] = Cohort 1 (N=2), 20 mg BID 17 days + carboplatin
[2] = Cohort 2 (N=7), 20 mg BID 10 days + carboplatin
[3] = Cohort 3 (N=3), 40 mg BID 10 days + carboplatin

In the case of `C[C@@H]1COCCN1c1cc(C2([S@](C)(=N)=O)CC2)nc(-c2cc[nH]c3nccc2-3)n1` [ceralasertib], the “TEAE Abdominal pain, Grade 1–2” value [1] is reported as 0 patients, n (%), the “TEAE Abdominal pain, Grade ≥3” value [1] is reported as 1 (50) patients, n (%) and the “TEAE Alanine aminotransferase increased, Grade 1–2” value [1] is reported as 0 patients, n (%). The “TEAE Alanine aminotransferase increased, Grade ≥3” value [1] was 0 patients, n (%), the “TEAE Anemia, Grade 1–2” value [1] was 1 (50) patients, n (%) and the “TEAE Anemia, Grade ≥3” value [1] was 0 patients, n (%). For the same compound, the “TEAE Any AE, Grade 1–2” value [1] was 1 (50) patients, n (%), the “TEAE Any AE, Grade ≥3” value [1] was 1 (50) patients, n (%) and the “TEAE Arthralgia, Grade 1–2” value [1] was 0 patients, n (%). The “TEAE Arthralgia, Grade ≥3” value [1] was 0 patients, n (%), the “TEAE Aspartate aminotransferase increased, Grade 1–2” value [1] was 0 patients, n (%) and the “TEAE Aspartate aminotransferase increased, Grade ≥3” value [1] was 0 patients, n (%). The “TEAE Constipation, Grade 1–2” value [1] was 1 (50) patients, n (%), the “TEAE Constipation, Grade ≥3” value [1] was 0 patients, n (%) and the “TEAE Contusion, Grade 1–2” value [1] was 0 patients, n (%). The “TEAE Contusion, Grade ≥3” value [1] was 0 patients, n (%), the “TEAE Cough, Grade 1–2” value [1] was 0 patients, n (%) and the “TEAE Cough, Grade ≥3” value [1] was 0 patients, n (%). For the same compound, the “TEAE Decreased appetite, Grade 1–2” value [1] was 0 patients, n (%), the “TEAE Decreased appetite, Grade ≥3” value [1] was 0 patients, n (%) and the “TEAE Diarrhea, Grade 1–2” value [1] was 1 (50) patients, n (%). For the same compound, the “TEAE Diarrhea, Grade ≥3” value [1] was 0 patients, n (%), the “TEAE Dizziness, Grade 1–2” value [1] was 0 patients, n (%) and the “TEAE Dizziness, Grade ≥3” value [1] was 0 patients, n (%). The “TEAE Dyspnea, Grade 1–2” value [1] was 1 (50) patients, n (%), the “TEAE Dyspnea, Grade ≥3” value [1] was 0 patients, n (%) and the “TEAE Fatigue, Grade 1–2” value [1] was 2 (100) patients, n (%). The “TEAE Fatigue, Grade ≥3” value [1] was 0 patients, n (%), the “TEAE Hypocalcemia, Grade 1–2” value [1] was 0 patients, n (%) and the “TEAE Hypocalcemia, Grade ≥3” value [1] was 0 patients, n (%). The “TEAE Insomnia, Grade 1–2” value [1] was 0 patients, n (%), the “TEAE Insomnia, Grade ≥3” value [1] was 0 patients, n (%) and the “TEAE Lower respiratory tract infection, Grade 1–2” value [1] was 0 patients, n (%). The “TEAE Lower respiratory tract infection, Grade ≥3” value [1] was 0 patients, n (%), the “TEAE Nausea, Grade 1–2” value [1] was 1 (50) patients, n (%) and the “TEAE Nausea, Grade ≥3” value [1] was 0 patients, n (%). The “TEAE Neutropenia, Grade 1–2” value [1] was 0 patients, n (%), the “TEAE Neutropenia, Grade ≥3” value [1] was 1 (50) patients, n (%) and the “TEAE Neutrophil count decreased, Grade 1–2” value [1] was 0 patients, n (%). For the same compound, the “TEAE Neutrophil count decreased, Grade ≥3” value [1] was 0 patients, n (%), the “TEAE Platelet count decreased, Grade 1–2” value [1] was 0 patients, n (%) and the “TEAE Platelet count decreased, Grade ≥3” value [1] was 0 patients, n (%). For the same compound, the “TEAE Pyrexia, Grade 1–2” value [1] was 1 (50) patients, n (%), the “TEAE Pyrexia, Grade ≥3” value [1] was 0 patients, n (%) and the “TEAE Thrombocytopenia, Grade 1–2” value [1] was 1 (50) patients, n (%). For the same compound, the “TEAE Thrombocytopenia, Grade ≥3” value [1] was 1 (50) patients, n (%), the “TEAE Upper respiratory tract infection, Grade 1–2” value [1] was 0 patients, n (%) and the “TEAE Upper respiratory tract infection, Grade ≥3” value [1] was 0 patients, n (%). For the same compound, the “TEAE Vomiting, Grade 1–2” value [1] was 1 (50) patients, n (%), the “TEAE Vomiting, Grade ≥3” value [1] was 0 patients, n (%) and the “TEAE White blood cell count decreased, Grade 1–2” value [1] was 0 patients, n (%). The “TEAE White blood cell count decreased, Grade ≥3” value [1] was 1 (50) patients, n (%), the “SRC decision (tolerability)” value (Cohort 1: 20 mg BID days 4–20 (17 days) + carboplatin AUC5, 2 patients) was “declared intolerable; also recorded: Not tolerated” and the “TEAE Abdominal pain, Grade 1–2” value [2] was 0 patients, n (%). The “TEAE Abdominal pain, Grade ≥3” value [2] was 0 patients, n (%), the “TEAE Alanine aminotransferase increased, Grade 1–2” value [2] was 1 (14) patients, n (%) and the “TEAE Alanine aminotransferase increased, Grade ≥3” value [2] was 0 patients, n (%). For the same compound, the “TEAE Anemia, Grade 1–2” value [2] was 2 (29) patients, n (%), the “TEAE Anemia, Grade ≥3” value [2] was 2 (29) patients, n (%) and the “TEAE Any AE, Grade 1–2” value [2] was 2 (29) patients, n (%). The “TEAE Any AE, Grade ≥3” value [2] was 5 (71) patients, n (%), the “TEAE Arthralgia, Grade 1–2” value [2] was 1 (14) patients, n (%) and the “TEAE Arthralgia, Grade ≥3” value [2] was 0 patients, n (%). The “TEAE Aspartate aminotransferase increased, Grade 1–2” value [2] was 1 (14) patients, n (%), the “TEAE Aspartate aminotransferase increased, Grade ≥3” value [2] was 0 patients, n (%) and the “TEAE Constipation, Grade 1–2” value [2] was 2 (29) patients, n (%). For the same compound, the “TEAE Constipation, Grade ≥3” value [2] was 0 patients, n (%), the “TEAE Contusion, Grade 1–2” value [2] was 1 (14) patients, n (%) and the “TEAE Contusion, Grade ≥3” value [2] was 0 patients, n (%). The “TEAE Cough, Grade 1–2” value [2] was 5 (71) patients, n (%), the “TEAE Cough, Grade ≥3” value [2] was 0 patients, n (%) and the “TEAE Decreased appetite, Grade 1–2” value [2] was 1 (14) patients, n (%). The “TEAE Decreased appetite, Grade ≥3” value [2] was 0 patients, n (%), the “TEAE Diarrhea, Grade 1–2” value [2] was 2 (29) patients, n (%) and the “TEAE Diarrhea, Grade ≥3” value [2] was 0 patients, n (%). The “TEAE Dizziness, Grade 1–2” value [2] was 0 patients, n (%), the “TEAE Dizziness, Grade ≥3” value [2] was 0 patients, n (%) and the “TEAE Dyspnea, Grade 1–2” value [2] was 3 (43) patients, n (%). For the same compound, the “TEAE Dyspnea, Grade ≥3” value [2] was 0 patients, n (%), the “TEAE Fatigue, Grade 1–2” value [2] was 4 (58) patients, n (%) and the “TEAE Fatigue, Grade ≥3” value [2] was 1 (14) patients, n (%). For the same compound, the “TEAE Hypocalcemia, Grade 1–2” value [2] was 0 patients, n (%), the “TEAE Hypocalcemia, Grade ≥3” value [2] was 0 patients, n (%) and the “TEAE Insomnia, Grade 1–2” value [2] was 2 (29) patients, n (%). For the same compound, the “TEAE Insomnia, Grade ≥3” value [2] was 0 patients, n (%), the “TEAE Lower respiratory tract infection, Grade 1–2” value [2] was 2 (29) patients, n (%) and the “TEAE Lower respiratory tract infection, Grade ≥3” value [2] was 0 patients, n (%). The “TEAE Nausea, Grade 1–2” value [2] was 2 (29) patients, n (%), the “TEAE Nausea, Grade ≥3” value [2] was 0 patients, n (%) and the “TEAE Neutropenia, Grade 1–2” value [2] was 1 (14) patients, n (%). For the same compound, the “TEAE Neutropenia, Grade ≥3” value [2] was 0 patients, n (%), the “TEAE Neutrophil count decreased, Grade 1–2” value [2] was 0 patients, n (%) and the “TEAE Neutrophil count decreased, Grade ≥3” value [2] was 0 patients, n (%). The “TEAE Platelet count decreased, Grade 1–2” value [2] was 0 patients, n (%), the “TEAE Platelet count decreased, Grade ≥3” value [2] was 1 (14) patients, n (%) and the “TEAE Pyrexia, Grade 1–2” value [2] was 3 (43) patients, n (%). The “TEAE Pyrexia, Grade ≥3” value [2] was 0 patients, n (%), the “TEAE Thrombocytopenia, Grade 1–2” value [2] was 4 (58) patients, n (%) and the “TEAE Thrombocytopenia, Grade ≥3” value [2] was 1 (14) patients, n (%). The “TEAE Upper respiratory tract infection, Grade 1–2” value [2] was 3 (43) patients, n (%), the “TEAE Upper respiratory tract infection, Grade ≥3” value [2] was 0 patients, n (%) and the “TEAE Vomiting, Grade 1–2” value [2] was 2 (29) patients, n (%). For the same compound, the “TEAE Vomiting, Grade ≥3” value [2] was 0 patients, n (%), the “TEAE White blood cell count decreased, Grade 1–2” value [2] was 0 patients, n (%) and the “TEAE White blood cell count decreased, Grade ≥3” value [2] was 0 patients, n (%). For the same compound, the “TEAE Abdominal pain, Grade 1–2” value [3] was 0 patients, n (%), the “TEAE Abdominal pain, Grade ≥3” value [3] was 0 patients, n (%) and the “TEAE Alanine aminotransferase increased, Grade 1–2” value [3] was 0 patients, n (%). For the same compound, the “TEAE Alanine aminotransferase increased, Grade ≥3” value [3] was 0 patients, n (%) and the “TEAE Anemia, Grade 1–2” value [3] was 1 (33) patients, n (%).
